Results: US20230130103A1, “TARGETED PHARMACOLOGICAL THERAPEUTICS IN UVEAL MELANOMA” (Washington University, priority 2017, published 2023)
Starred links: 1 amine or outer side, 2 acyl side, 3 side chain; linkers in the order of their positions; H or OH if unused. Positions of bridges follow the written chain, without caps; N, C: chain ends. Non-standard residues stand in square brackets, D forms with d. Residues, ends and D or L forms follow the SMILES beside them. *: point of attachment. Leu(3R-OH,Nα-propionyl) = CCC(=O)N[C@H](C(=O)*)[C@H](O)C(C)C; X1 = CC(C)[C@@H](O[*:3])[C@H](N[*:1])C(=O)[*:2]; X2 = CC(C)[C@H](O[*:3])[C@@H](N[*:1])C(=O)[*:2]; NMeaThr = CN[C@H](C(=O)O)[C@H](C)O; dPhLac = O=C(O)[C@H](O)Cc1ccccc1; NMeA = CN[C@@H](C)C(=O)O; NMeDha = C=C(NC)C(=O)O

System: 92.1 UM cells
Test: Gene Set Enrichment Analysis (GSEA) of RNA-Seq data
Format: cell-based, Human
[1] = gene set #CAFFAREL_RESPONSE_TO_THC_DN
[2] = gene set ALCALAY_AML_BY_NPM1_LOCALIZATION_DN
[3] = gene set BASSO_[?]_LYMPHOCYTE_NETWORK
[4] = gene set CHIANG_LIVER_CANCER_SUBCLASS_UNANNOTATED_DN
[5] = gene set CHICAS_RB1_TARGETS_GROWING
[6] = gene set CHICAS_RB1_TARGETS_SENESCENT
[7] = gene set DOUGLAS_[?]_TARGETS_UP
[8] = gene set ELVIDGE_HIF1A_TARGETS_UP
[9] = gene set FERRANDO_T_ALL_WITH_MLL_ENL_FUSION_DN
[10] = gene set FOURNIER_ACINAR_DEVELOPMENT_LATE_DN
[11] = gene set GARCIA_TARGETS_OF_FL[?]_AND_DAX1_DN
[12] = gene set GROSS_HYPOXIA_VIA_ELK3_UP
[13] = gene set GRUETZMANN_PANCREATIC_CANCER_UP
[14] = gene set IVANOVA_HEMATOPOIESIS_LATE_PROGENITOR
[15] = gene set JOHNSTONE_PARVES_TARGETS_2_DN
[16] = gene set KEGG_AMINO_SUGAR_AND_NUCLEOTIDE_SUGAR_METABOLISM
[17] = gene set KEGG_CITRATE_CYCLE_TCA_CYCLE
[18] = gene set KEGG_FC_GAMMA_[?]_MEIATED_PHAGOCYTOSIS
[19] = gene set KEGG_PATHOGENIC_ESCHERICHIA_COLI_INFECTION
[20] = gene set LASTOWSKA_NEUROBLASTOMA_COPY_NUMBER_DN
[21] = gene set MARIADASON_REGULATED_BY_HISTONE_ACETYLATION_DN
[22] = gene set MARTINEZ_RESPONSE_TO_TRABECTEDIN_DN
[23] = gene set MEINHOLD_OVARIAN_CANCER_LOW_GRADE_DN
[24] = gene set ONDER_CDH1_TARGETS_1_DN
[25] = gene set OXFORD_RALA_OR_RALB_TARGETS_UP
[26] = gene set PEART_HDAC_PROLIFERATION_CLUSTER_DN
[27] = gene set PODAR_RESPONSE_TO_ADAPHOSTIN_DN
[28] = gene set PRAMOONIAGO_SOX4_TARGETS_DN
[29] = gene set PUIFFE_INVASION_INHIBITED_BY_ASCITES_UP
[30] = gene set REACTOME_ACTIVATION_OF_CHAPERONE_GENES_BY_XBP15

C=C1C(=O)N[C@@H](C)C(=O)N(C)[C@@H](C)C(=O)N[C@H]([C@@H](OC(=O)[C@@H](NC(=O)CC)[C@H](O)C(C)C)C(C)C)C(=O)N(C)[C@@H]([C@H](C)OC)C(=O)O[C@H](C(C)C)[C@H](NC(C)=O)C(=O)O[C@H](Cc2ccccc2)C(=O)N1C [FR, [(1S)-1-[(3S,6R,9S,12S,18R,21S,22R)-21-acetamido-18-benzyl-3-[(1S)-1-methoxyethyl]-4,9,10,12,16-pentamethyl-15-methylidene-2,5,8,11,14,17,20-heptaoxo-22-propan-2-yl-1,19-dioxa-4,7,10,13,16-pentazacyclodocos-6-yl]-2-methylpropyl] (2S,3R)-3-hydroxy-4-methyl-2-(propanoylamino)pentanoate] (Ac-[X1][dPhLac][NMeDha]A[NMeA][X2](Leu(3R-OH,Nα-propionyl))[NMeaThr](Me); ester 1-C)
ES [1]: 0.6253 | NES [1]: 2.134 | ES [2]: 0.4726 | NES [2]: 2.261 | ES [3]: 0.4691 | NES [3]: 2.175 | ES (gene set BENPORATH_ES_1): 0.3997 | NES (gene set BENPORATH_ES_1): 2.093 | ES (gene set BIOCARTA_RHO_PATHWAY): 0.6245 | NES (gene set BIOCARTA_RHO_PATHWAY): 2.154 | ES [4]: 0.4436 | NES [4]: 2.13 | ES [5]: 0.4131 | NES [5]: 2.057 | ES [6]: 0.4124 | NES [6]: 2.254 | ES (gene set CSR_EARLY_UP.V1_UP): 0.4601 | NES (gene set CSR_EARLY_UP.V1_UP): 2.136 | ES [7]: 0.3969 | NES [7]: 2.179 | ES [8]: 0.5452 | NES [8]: 2.195 | ES [9]: 0.5186 | NES [9]: 2.174 | ES [10]: 0.6475 | NES [10]: 2.082 | ES (gene set GABP_B): 0.419 | NES (gene set GABP_B): 2.063 | ES [11]: 0.4628 | NES [11]: 2.153 | ES [12]: 0.4432 | NES [12]: 2.179 | ES [13]: 0.393 | NES [13]: 2.047 | ES [14]: 0.4037 | NES [14]: 2.155 | ES (gene set JIANG_VHL_TARGETS): 0.4893 | NES (gene set JIANG_VHL_TARGETS): 2.171 | ES [15]: 0.4128 | NES [15]: 2.133 | ES [16]: 0.5976 | NES [16]: 2.088 | ES [17]: 0.6499 | NES [17]: 2.188 | ES [18]: 0.5262 | NES [18]: 2.154 | ES [19]: 0.5693 | NES [19]: 2.167 | ES [20]: 0.3819 | NES [20]: 2.135 | ES (gene set LINSLEY_MIR16_TARGETS): 0.4327 | NES (gene set LINSLEY_MIR16_TARGETS): 2.092 | ES (gene set LIN_APC_TARGETS): 0.5227 | NES (gene set LIN_APC_TARGETS): 2.086 | ES (gene set LY_AGING_PREMATURE_DN): 0.6267 | NES (gene set LY_AGING_PREMATURE_DN): 2.103 | ES [21]: 0.5871 | NES [21]: 2.132 | ES [22]: 0.4324 | NES [22]: 2.184 | ES [23]: 0.7218 | NES [23]: 2.197 | ES (gene set NPS14_DN.V1_DN): 0.4491 | NES (gene set NPS14_DN.V1_DN): 2.133 | ES [24]: 0.4845 | NES [24]: 2.225 | ES [25]: 0.544 | NES [25]: 2.089 | ES (gene set PBC2_EED_UP.V1_DN): 0.4268 | NES (gene set PBC2_EED_UP.V1_DN): 2.076 | ES [26]: 0.4996 | NES [26]: 2.059 | ES (gene set PIC_DCD42_REG_PATHWAY): 0.5968 | NES (gene set PIC_DCD42_REG_PATHWAY): 2.051 | ES (gene set PIC_E2F_PATHWAY): 0.5204 | NES (gene set PIC_E2F_PATHWAY): 2.172 | ES (gene set PIC_FANCONE_PATHWAY): 0.5661 | NES (gene set PIC_FANCONE_PATHWAY): 2.097 | ES (gene set PIC_FCER1_PATHWAY): 0.5656 | NES (gene set PIC_FCER1_PATHWAY): 2.102 | ES (gene set PID_PDGFRB_PATHWAY): 0.4862 | NES (gene set PID_PDGFRB_PATHWAY): 2.232 | ES (gene set PIO_AURORA_A_PATHWAY): 0.6657 | NES (gene set PIO_AURORA_A_PATHWAY): 2.186 | ES (gene set PIO_TCR_PATHWAY): 0.6 | NES (gene set PIO_TCR_PATHWAY): 2.184 | ES [27]: 0.6921 | NES [27]: 2.117 | ES [28]: 0.5652 | NES [28]: 2.158 | ES [29]: 0.5104 | NES [29]: 2.126 | ES (gene set RACTOME_IMMUNE_SYSTEM): 0.3664 | NES (gene set RACTOME_IMMUNE_SYSTEM): 2.063 | ES (gene set RB_P107_0N, L1_UP): 0.4941 | NES (gene set RB_P107_0N, L1_UP): 2.216 | ES [30]: 0.5859 | NES [30]: 2.116
